Where “and” joins values, the source holds several entries; their conditions need not be identical. Equal values may be shown once.
Columns and labels:
[1] = system: hospitalized men with COVID-19; assay: Randomized controlled pilot trial: clinical status and clinical outcomes, progesterone + SOC vs SOC alone; type: in vivo, human
[2] = Randomized controlled pilot trial: serious adverse events and safety; type: in vivo, human
Description: Death, serious adverse events (SAE's), and grade 3 and 4 adverse events (AEs) are will be assessed and reported throughout the study.
Study patients were assessed daily for 15 days or until discharge, whichever came first. Discharged patients participated in phone or video study visits on days 7 and 15. Clinical assessment performed daily during hospitalization included evaluation of clinical status with daily vital signs, oxygen supplementation type and amount, need for mechanical ventilation, adverse events, and concomitant medications. WBCs, hemoglobin, platelets, electrolytes, BUN, creatinine, liver transaminases, and inflammatory markers, if obtained as part of SOC, were monitored on days 1 through 5, 7, and 15 while patients were hospitalized. […] Self-reported race and ethnicity, obtained from medical records, were collected as demographic information to assess possible differences in disease severity or treatment response. Serious adverse events and grade 3 and 4 adverse events as described in the Division of AIDS Table for Grading the Severity of Adult and Pediatric Adverse Events were recorded.

[3] = 100 mg sc twice daily 5 days + SOC, n = 18
[4] = 100 mg sc twice daily 5 days + SOC, preliminary analysis N = 17
[5] = 7-point ordinal scale, preliminary analysis N = 17, P 0.003 vs SOC
[6] = 7-point ordinal scale, preliminary analysis N = 17, P <0.001 vs SOC
[7] = seven-point ordinal scale, from baseline, n = 18
[8] = Control Group After Progesterone n = 9, SAEs after receiving progesterone (crossover)

CC(=O)[C@H]1CC[C@H]2[C@@H]3CCC4=CC(=O)CC[C@]4(C)[C@H]3CC[C@]12C [Progesterone, progesterone]
Status on day 7: 1: Death [1, 3]: 1 (5.6) No. (%)
Status on day 7: 2: Hospitalized; on invasive mechanical ventilation or ECMO [1, 3]: 0 (0.0) No. (%)
Status on day 7: 3: Hospitalized; on high-flow nasal cannula [1, 3]: 2 (11.1) No. (%)
Status on day 7: 4: Hospitalized; requiring supplemental oxygen (not HFNC) [1, 3]: 2 (11.1) No. (%)
Status on day 7: 5: Hospitalized; not requiring supplemental oxygen [1, 3]: 4 (22.2) No. (%)
Status on day 7: 6: Not hospitalized; limitations on activities [1, 3]: 7 (38.9) No. (%)
Status on day 7: 7: Not hospitalized; no limitations on activities [1, 3]: 2 (11.1) No. (%)
Status on day 15: 1: Death [1, 3]: 1 (5.6) No. (%)
Status on day 15: 2: Hospitalized; on invasive mechanical ventilation or ECMO [1, 3]: 0 (0.0) No. (%)
Status on day 15: 3: Hospitalized; on high-flow nasal cannula [1, 3]: 0 (0.0) No. (%)
Status on day 15: 4: Hospitalized; requiring supplemental oxygen (not HFNC) [1, 3]: 1 (5.6) No. (%)
Status on day 15: 5: Hospitalized; not requiring supplemental oxygen [1, 3]: 1 (5.6) No. (%)
Status on day 15: 6: Not hospitalized; limitations on activities [1, 3]: 8 (44.4) No. (%)
Status on day 15: 7: Not hospitalized; no limitations on activities [1, 3]: 7 (38.9) No. (%)
Status at Day 7: 2-Hospitalized; on invasive mechanical ventilation or ECMO [1, 4]: 0 (0.0) n (%)
Status at Day 7: 3-Hospitalized; on high flow nasal cannula [1, 4]: 2 (11.8) n (%)
Status at Day 7: 4-Hospitalized; requiring supplemental oxygen (not HFNC) [1, 4]: 2 (11.8) n (%)
Status at Day 7: 5-Hospitalized; not requiring supplemental oxygen [1, 4]: 4 (23.5) n (%)
Status at Day 7: 6-Not hospitalized; limitations on activities [1, 4]: 7 (41.2) n (%)
Status at Day 7: 7-Not hospitalized; no limitations on activities [1, 4]: 2 (11.8) n (%)
Worst Status Prior to Day 7: 2-Hospitalized; on invasive mechanical ventilation or ECMO [1, 4]: 0 (0.0) n (%)
Worst Status Prior to Day 7: 3-Hospitalized; on high flow nasal cannula [1, 4]: 5 (29.4) n (%)
Worst Status Prior to Day 7: 4-Hospitalized; requiring supplemental oxygen (not HFNC) [1, 4]: 11 (64.7) n (%)
Worst Status Prior to Day 7: 5-Hospitalized; not requiring supplemental oxygen [1, 4]: 1 (5.9) n (%)
Change from Baseline at Day 7: 0 [1, 5]: 3 (17.6) n (%)
Change from Baseline at Day 7: +1 [1, 5]: 3 (17.6) n (%)
Change from Baseline at Day 7: +2 [1, 5]: 7 (41.2) n (%)
Change from Baseline at Day 7: +3 [1, 5]: 2 (11.8) n (%)
Change from Baseline at Day 7: −1 [1, 5]: 2 (11.8) n (%)
Change from Baseline at Day 7: −2 [1, 5]: 0 (0.0) n (%)
Change from Worst at Day 7: 0 [1, 6]: 3 (17.6) n (%)
Change from Worst at Day 7: +1 [1, 6]: 4 (23.5) n (%)
Change from Worst at Day 7: +3 [1, 6]: 2 (11.8) n (%)
median hospital length of stay (LOS) ([1]; Progesterone Group n = 18): 7.0 days
median number of days on supplemental oxygen ([1]; Progesterone Group n = 18): 4.5 (IQR, 2.0-6.0) days and 4.5 days
patients remaining hospitalized at study completion ([1]; day 15, progesterone group): one
cumulative probability of clinical improvement (increase of at least one point on the seven-point scale or live discharge) ([1]; first seven study days, Kaplan-Meier estimation, one noncompliant patient excluded, log-rank P=0.014 vs control): 0.76 (95% CI, 0.55-0.93)
fewer days hospitalized than control ([1]; median 7.0 vs 9.5 days): 2.5 days
patients remaining hospitalized by day 7 ([1]; nine of 18 patients): 50%
median improvement more than control group, worst clinical status before day 7 vs status on day 7 ([1]; post hoc sensitivity analysis, 95% CI, 1.0-2.0, P=0.006): two
improvement in clinical status at Day 7 compared to SOC ([1]; preliminary analysis, Wilcoxon rank-sum p=0.003): greater degree of improvement in clinical status at Day 7
improvement from worst status prior to Day 7 compared to SOC ([1]; preliminary sensitivity analysis, p<0.001): greater improvement over the SOC group
mechanical ventilation initiated ([1]; progesterone group, vs four of 22 control patients): none
overall change in score from baseline to day 7, median better than control group ([1]; sensitivity analysis, last assessment before crossing over imputed as day 7 score, 95% CI, 0.0-2.0, P=0.010): 1.5 points
Change in status on day 7: 0 [1, 7]: 3 (16.7) No. (%)
Change in status on day 7: +1 [1, 7]: 3 (16.7) No. (%)
Change in status on day 7: +2 [1, 7]: 7 (38.9) No. (%)
Change in status on day 7: +3 [1, 7]: 2 (11.1) No. (%)
Change in status on day 7: −1 [1, 7]: 2 (11.1) No. (%)
Change in status on day 7: −2 [1, 7]: 0 (0.0) No. (%)
Change in status on day 7: −3 [1, 7]: 1 (5.6) No. (%)
Change in status on day 15: 0 [1, 7]: 1 (5.6) No. (%)
Change in status on day 15: +1 [1, 7]: 4 (22.2) No. (%)
Change in status on day 15: +2 [1, 7]: 4 (22.2) No. (%)
Change in status on day 15: +3 [1, 7]: 7 (38.9) No. (%)
Change in status on day 15: +4 [1, 7]: 1 (5.6) No. (%)
Change in status on day 15: −1 [1, 7]: 0 (0.0) No. (%)
Change in status on day 15: −2 [1, 7]: 0 (0.0) No. (%)
Change in status on day 15: −3 [1, 7]: 1 (5.6) No. (%)
Change in status on day 7, median (IQR) ([1]; seven-point ordinal scale, from baseline, n = 18, P .024 vs control): 1.5 (0.0 to 2.0)
Change in status on day 15, median (IQR) ([1]; seven-point ordinal scale, from baseline, n = 18, P .150 vs control): 2.0 (1.0 to 3.0)
overall improvement in median clinical status score from baseline to day 7 compared with control ([1]; seven-point ordinal scale, 95% CI, 0.0-2.0, P=0.024): 1.5 points
serious adverse events attributable to progesterone ([2]; 100 mg sc twice daily): no serious adverse events attributable to progesterone
Any SAE or death [2, 8]: 3 (33.3) No. (%)
SAE: Cardiac arrest [2, 8]: 0 (0.0) No. (%)
SAE: Creatinine increased [2, 8]: 0 (0.0) No. (%)
SAE: DVT [2, 8]: 1 (11.1) No. (%)
SAE: Death [2, 8]: 0 (0.0) No. (%)
SAE: Hypoperfusion [2, 8]: 2 (22.2) No. (%)
SAE: Hypoxia [2, 8]: 3 (33.3) No. (%)
SAE: Lymphocyte count decreased [2, 8]: 0 (0.0) No. (%)
SAE: Pulmonary embolism [2, 8]: 0 (0.0) No. (%)
Any SAE or death ([2]; Progesterone Group n = 18): 2 (11.1) No. (%)
SAE: Cardiac arrest ([2]; Progesterone Group n = 18): 0 (0.0) No. (%)
SAE: Creatinine increased ([2]; Progesterone Group n = 18): 0 (0.0) No. (%)
SAE: DVT ([2]; Progesterone Group n = 18): 1 (5.6) No. (%)
SAE: Death ([2]; Progesterone Group n = 18): 1 (5.6) No. (%)
SAE: Hypoperfusion ([2]; Progesterone Group n = 18): 0 (0.0) No. (%)
SAE: Hypoxia ([2]; Progesterone Group n = 18): 0 (0.0) No. (%)
SAE: Lymphocyte count decreased ([2]; Progesterone Group n = 18): 0 (0.0) No. (%)
SAE: Pulmonary embolism ([2]; Progesterone Group n = 18): 1 (5.6) No. (%)
risk of thromboembolism ([2]; all patients on prophylactic-dose anticoagulation): not associated with any significant increase in the risk of thromboembolism
tolerability of high serum levels ([2]; levels as high as 288 ng/mL): tolerated well and not associated with any adverse events
deaths during the total 15-day surveillance period ([2]; progesterone group, not attributable to progesterone): one
patients with thromboembolic events ([2]; progesterone group, two thromboembolic events in one patient): 5.6%
